Holding throughout (type): biochemical
Assay [1] concerns Lectin Pathway Activation (LPA) in human serum. In words: Lectin pathway activation (LPA) assay in human serum, C4 deposition on mannan-coated plate. The note with it: 1% pooled human serum, 55 minutes, room temperature. The method, then: A Microtiter ELISA plate (Nunc-Maxi Sorp; Sigma-Aldrich®, USA) was coated with mannan sourced from Saccharomyces cerevisiae (Sigma-Aldrich®, USA) in a coating buffer comprising 33.3 mM Na2CO3 and 166.67 mM NaHCO3. The plates were incubated at room temperature overnight. Subsequently, the plates were blocked with a 5% bovine serum albumin solution (Sigma-Aldrich®, USA) prepared in PBST for 2 hours at room temperature with agitation. Varying concentrations of MASP-2 inhibitors were dispensed onto the empty plate.
To perform the assay, pooled human serum was diluted to 1% in a solution of 20 mM HEPES (pH=7.4), 140 mM NaCl, and 1 mM MgCl2. Then, 40 μl of the diluted human serum was dispensed into each well of the Microtiter ELISA plate and incubated for 55 minutes at room temperature. The C4 deposition on the mannan-coated surface was stopped using an EDTA stop solution (20 mM HEPES, pH=7.4, 140 mM NaCl, and 150 mM EDTA). Subsequently, rabbit anti-Human C4c antibody (Agilent Technologies, USA) prepared in PBST was added, and the plates were incubated at room temperature for 30 minutes with agitation, then washed with PBST, and Goat anti-rabbit IgG(H+L) HRP-conjugated (Southern Biotech®, USA) was added. The plates were again incubated at room temperature for 30 minutes with agitation, and then were washed with PBST. Following this, the Amplex® UltraRed® (Thermo Fischer Sci, USA) substrate solution was added for 16 minutes, followed by the addition of the Amplex® UltraRed® stop solution. The plates' fluorescence was measured using an i3× microplate reader (Molecular Devices, USA) with excitation at 550 nm and emission at 580 nm. The raw data generated from the plate reader was exported to GraphPad Prism® (version 10.0.3), and the non-linear regression curve was generated using the 4-parameter logistic fit equation. All data are reported as pIC50 with a 95% confidence interval.

Assay [2] addresses T1, human a-thrombin (Homo sapiens, UniProt P00734).
T1 construct: enzyme (human a-thrombin (BioPharm® Lab.)); purchased BioPharm Lab
Put plainly: Enzymatic assay for thrombin (fluorogenic peptide substrate Boc-VPR-AMC). Particulars: room temperature, 20 mM Hepes pH 7.4, 20 min. The method, boiled down: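 Human α-thrombin was incubated with serially diluted compound and fluorogenic substrate Boc-VPR-AMC in 20 mM Hepes pH 7.4, 140 mM NaCl, 0.1% Tween 20 at room temperature. The reaction was stopped after 20 min with 0.1 M acetic acid and fluorescence read. % activity was normalized to DMSO and no-enzyme controls, and IC50 was taken as equivalent to Ki.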

Assay [3] addresses T2, MASP-2 (CCP1-CCP2-SP) (Homo sapiens, UniProt O00187).
T2 construct: 15 μL of Enzyme MASP-2 (CCP1-CCP2-SP) in Assay Buffer
In words: Enzymatic assay for MASP-2 inhibitory activity (fluorogenic substrate). Particulars: room temperature, 20 mM Hepes pH 7.4, 20 min. In outline: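 Human MASP-2 CCP1-CCP2-SP construct with a C2-cleavage-site fluorogenic substrate in 20 mM HEPES pH 7.4, 140 mM NaCl, 0.1% Tween 20, 20 min at room temperature before acetic acid stop. Activity normalised to DMSO and no-enzyme controls; IC50 taken as equivalent to Ki under linear conditions.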

The IC50 is the concentration that gives 50% inhibition. Read a high IC50 as weaker potency. Broadly, the Ki is the dissociation constant of the complex between target and ligand, obtained from inhibition or displacement. The low end stands for higher affinity, the high end for lower affinity.

T2 sequence (O00187 287-686 limits assumed): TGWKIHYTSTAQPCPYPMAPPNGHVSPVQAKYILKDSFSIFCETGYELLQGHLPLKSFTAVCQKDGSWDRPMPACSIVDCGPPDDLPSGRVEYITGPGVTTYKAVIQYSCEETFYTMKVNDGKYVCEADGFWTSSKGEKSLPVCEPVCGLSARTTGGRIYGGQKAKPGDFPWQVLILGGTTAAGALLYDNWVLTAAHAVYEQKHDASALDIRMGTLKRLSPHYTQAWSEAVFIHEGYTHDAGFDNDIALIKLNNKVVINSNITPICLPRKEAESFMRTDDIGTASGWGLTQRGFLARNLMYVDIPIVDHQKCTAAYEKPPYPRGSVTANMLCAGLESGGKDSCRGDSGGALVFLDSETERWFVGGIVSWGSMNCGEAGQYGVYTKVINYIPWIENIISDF

Regarding `N#Cc1cc(CNc2cnc3n(c2=O)[C@H](C(=O)N[C@@H]2CCc4nc(N)ccc42)CC3)cc(C(F)(F)F)c1` [Compound 90, (S)-N-((R)-2-amino-6,7-dihydro-5H-cyclopenta[b]pyridin-5-yl)-3-((3-cyano-5-(trifluoromethyl)benzyl)amino)-4-oxo-4,6,7,8-tetrahydropyrrolo[1,2-a]pyrimidine-6-carboxamide], in assay [1], the IC50 is < 500 nM. The Ki in assay [2] was 500 to 2500 nM; in assay [3] it was < 500 nM.

With `Cc1cccc(CNc2cnc3n(c2=O)[C@H](C(=O)N[C@@H]2CCc4nc(N)ccc42)CC3)c1` [Compound 82, (S)—N—((R)-2-amino-6,7-dihydro-5H-cyclopenta[b]pyridin-5-yl)-3-((3-methylbenzyl)amino)-4-oxo-4,6,7,8-tetrahydropyrrolo[1,2-a]pyrimidine-6-carboxamide], the IC50 in assay [1] is < 500 nM. Further, the results for the Ki in assay [2] and in assay [3] were 500 to 2500 nM and < 500 nM, respectively.

Take `Cc1cc(C)cc(CNc2cnc3n(c2=O)[C@H](C(=O)NCc2ccc4cncn4c2)CC3)c1` [Compound 20, (S)-3-((3,5-dimethylbenzyl)amino)-N-(imidazo[1,5-a]pyridin-6-ylmethyl)-4-oxo-4,6,7,8-tetrahydropyrrolo[1,2-a]pyrimidine-6-carboxamide]: in assay [1], the IC50 was < 500 nM. Also, the results for the Ki in assay [2] and in assay [3] were > 25000 nM and < 500 nM, respectively.

For the molecule `N#CC1C2CC1C2CNc1cnc2n(c1=O)[C@H](C(=O)N[C@@H]1CCc3nc(N)ccc31)CC2` (stereo partly drawn) [Compound 86, (6S)—N—((R)-2-amino-6,7-dihydro-5H-cyclopenta[b]pyridin-5-yl)-3-(((4-cyanobicyclo[1.1.1]pentan-2-yl)methyl)amino)-4-oxo-4,6,7,8-tetrahydropyrrolo[1,2-a]pyrimidine-6-carboxamide], the IC50 in assay [1] is < 500 nM. For the same molecule, the Ki in assay [2] is > 25000 nM; in assay [3], < 500 nM.

As for `Cc1cc(F)cc(CNc2cnc3n(c2=O)[C@H](C(=O)N[C@H](C)c2ccc(N)nc2)CC3)c1` [Compound 25, (S)—N—((R)-1-(6-aminopyridin-3-yl)ethyl)-3-((3-fluoro-5-methylbenzyl)amino)-4-oxo-4,6,7,8-tetrahydropyrrolo[1,2-a]pyrimidine-6-carboxamide, DI-trifluoroacetate], in assay [1], the IC50 was < 500 nM. Also, the results for the Ki in assay [2] and in assay [3] were > 25000 nM and < 500 nM, respectively.

Turning to `Cc1ccccc1CNc1cnc2n(c1=O)[C@H](C(=O)NCc1ccc(N)nc1C)CC2` [Compound 54, (S)—N-((6-amino-2-methylpyridin-3-yl)methyl)-3-((2-methylbenzyl)amino)-4-oxo-4,6,7,8-tetrahydropyrrolo[1,2-a]pyrimidine-6-carboxamide], in assay [1], the half-inhibitory concentration (IC50) is < 500 nM. Further, the Ki in assay [2] is 500 to 2500 nM; in assay [3] it was < 500 nM.

`Cc1cc(Cl)cc(CNc2cnc3n(c2=O)[C@H](C(=O)NCc2cnc4c(c2)CNC4)CC3)c1` [Compound 65, (S)-3-((3-chloro-5-methylbenzyl)amino)-N-((6,7-dihydro-5H-pyrrolo[3,4-b]pyridin-3-yl)methyl)-4-oxo-4,6,7,8-tetrahydropyrrolo[1,2-a]pyrimidine-6-carboxamide, di-trifluoroacetate]: in assay [1], the IC50 is < 500 nM. Besides, the Ki was > 25000 nM in assay [2] and < 500 nM in assay [3].

As for `Cc1nc(N)ccc1CNC(=O)[C@@H]1CCc2ncc(NCc3cccc(OC(F)F)c3)c(=O)n21` [Compound 75, (S)-N-((6-amino-2-methylpyridin-3-yl)methyl)-3-((3-(difluoromethoxy)benzyl)amino)-4-oxo-4,6,7,8-tetrahydro-pyrrolo[1,2-a]pyrimidine-6-carboxamide], in assay [1], the IC50 is < 500 nM. Moreover, the Ki in assay [2] was 500 to 2500 nM; in assay [3] it was < 500 nM.
